According to PubChem BioAssay AID328 (DTP/NCI, 2004):
Toxic doses and inconclusive results are not listed. The calls were made as follows: active = survival T/C of 150% or more; inactive = T/C below 125% in these data.

Test system: BDF1 mice, P388 leukemia ip, median survival T/C
Assay: NCI In Vivo Anticancer Drug Screen. Data for tumor model P388 Leukemia (intraperitoneal) in B6D2F1 (BDF1) mice
Settings: endpoint: median survival time, higher = longer survival
Summary of the method: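 Antitumour effect was judged in vivo: survival in drug-treated mice, normalised to that of vehicle-dosed controls, gives the reported T/C.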

[1] = dose: 50.0 mg/kg/injection, schedule: Q01DX009 (ip), vehicle: Klucel (hydroxypropylcellulose) (HPC)
[2] = dose: 100.0 mg/kg/injection, schedule: Q01DX009 (ip), vehicle: Klucel (hydroxypropylcellulose) (HPC)
[3] = dose: 100.0 mg/kg/injection, schedule: Q04DX003 (ip), vehicle: Klucel (hydroxypropylcellulose) (HPC)
[4] = dose: 200.0 mg/kg/injection, schedule: Q01DX009 (ip), vehicle: Klucel (hydroxypropylcellulose) (HPC)
[5] = dose: 200.0 mg/kg/injection, schedule: Q04DX003 (ip), vehicle: Klucel (hydroxypropylcellulose) (HPC)
[6] = dose: 100.0 mg/kg/injection, schedule: Q04DX003 (ip), vehicle: saline with Tween-80
[7] = dose: 200.0 mg/kg/injection, schedule: Q04DX003 (ip), vehicle: saline with Tween-80
[8] = dose: 100.0 mg/kg/injection, schedule: Q01DX010 (ip), vehicle: saline
[9] = dose: 200.0 mg/kg/injection, schedule: Q01DX010 (ip), vehicle: saline
[10] = dose: 100.0 mg/kg/injection, schedule: Q01DX009 (ip), vehicle: saline with Tween-80
[11] = dose: 200.0 mg/kg/injection, schedule: Q01DX009 (ip), vehicle: saline with Tween-80
[12] = dose: 400.0 mg/kg/injection, schedule: Q01DX009 (ip), vehicle: saline with Tween-80
[13] = dose: 12.5 mg/kg/injection, schedule: Q04DX003 (ip), vehicle: saline
[14] = dose: 25.0 mg/kg/injection, schedule: Q04DX003 (ip), vehicle: saline
[15] = dose: 400.0 mg/kg/injection, schedule: Q04DX003 (ip), vehicle: saline with Tween-80
[16] = dose: 50.0 mg/kg/injection, schedule: Q01DX009 (ip), vehicle: saline with Tween-80
[17] = dose: 50.0 mg/kg/injection, schedule: Q01DX009 (ip), vehicle: saline
[18] = dose: 12.5 mg/kg/injection, schedule: Q01DX009 (ip), vehicle: saline
[19] = dose: 25.0 mg/kg/injection, schedule: Q01DX009 (ip), vehicle: saline

Measured: T/C

O=C1CCCc2ccccc2N1
inactive: dose: 25.0 mg/kg/injection, schedule: Q01DX009 (ip), vehicle: Klucel (hydroxypropylcellulose) (HPC) 100 % of control | [1] 95 % of control | [2] 91 % of control | [3] 95 % of control | [4] 91 % of control | [5] 100 % of control | dose: 400.0 mg/kg/injection, schedule: Q01DX009 (ip), vehicle: Klucel (hydroxypropylcellulose) (HPC) 91 % of control | dose: 400.0 mg/kg/injection, schedule: Q04DX003 (ip), vehicle: Klucel (hydroxypropylcellulose) (HPC) 100 % of control

CC(C)=C(CO)CCC(C)C
inactive: dose: 50.0 mg/kg/injection, schedule: Q04DX003 (ip), vehicle: saline with Tween-80 109 % of control | [6] 122 % of control | [7] 118 % of control

CCOC(=O)N=C=O
inactive: dose: 100.0 mg/kg/injection, schedule: Q01DX009 (ip), vehicle: water 114 % of control | dose: 100.0 mg/kg/injection, schedule: Q04DX003 (ip), vehicle: water 96 % of control | dose: 200.0 mg/kg/injection, schedule: Q01DX009 (ip), vehicle: water 110 % of control | dose: 200.0 mg/kg/injection, schedule: Q04DX003 (ip), vehicle: water 99 % of control | dose: 400.0 mg/kg/injection, schedule: Q04DX003 (ip), vehicle: water 107 % of control

N[C@H](Cc1c[nH]c2ccccc12)C(=O)O
inactive: [8] 92 % of control | [9] 96 % of control | dose: 400.0 mg/kg/injection, schedule: Q01DX010 (ip), vehicle: saline 96 % of control | dose: 800.0 mg/kg/injection, schedule: Q01DX010 (ip), vehicle: saline 110 % of control

Cc1nc2nc(N)[nH]c(=O)c2[nH]c1=O
inactive: [10] 104 % of control | [11] 100 % of control | [12] 109 % of control

NCC=C1C2CC3CC(C2)CC1C3
inactive: [13] 103 % of control | [14] 100 % of control | dose: 50.0 mg/kg/injection, schedule: Q04DX003 (ip), vehicle: saline 100 % of control

CCC(C(=O)OC)C1CCCCC1 (centres undefined)
inactive: [10] 107 % of control | [6] 108 % of control | [11] 111 % of control | [7] 100 % of control | [12] 103 % of control | [15] 104 % of control

CC(=O)Oc1cccc2c1C(=O)c1c(OC(C)=O)cccc1C2=O
inactive: dose: 3.13 mg/kg/injection, schedule: Q04DX003 (ip), vehicle: Klucel (hydroxypropylcellulose) (HPC) 101 % of control | dose: 12.5 mg/kg/injection, schedule: Q04DX003 (ip), vehicle: Klucel (hydroxypropylcellulose) (HPC) 99 % of control | dose: 25.0 mg/kg/injection, schedule: Q04DX003 (ip), vehicle: Klucel (hydroxypropylcellulose) (HPC) 117 % of control | dose: 50.0 mg/kg/injection, schedule: Q04DX003 (ip), vehicle: Klucel (hydroxypropylcellulose) (HPC) 108 % of control

CC(=O)O.CC(=O)O.[Co+2].[NH-]C(CCC(N)=O)C(=O)O.[NH-]C(CCC(N)=O)C(=O)O (centres undefined)
inactive: dose: 12.5 mg/kg/injection, schedule: Q01DX009 (ip), vehicle: saline with Tween-80 87 % of control | dose: 25.0 mg/kg/injection, schedule: Q01DX009 (ip), vehicle: saline with Tween-80 93 % of control | [16] 98 % of control

NC(=O)OCCCCCl
inactive: [17] 110 % of control | dose: 100.0 mg/kg/injection, schedule: Q01DX009 (ip), vehicle: saline 107 % of control | dose: 200.0 mg/kg/injection, schedule: Q01DX009 (ip), vehicle: saline 100 % of control

CCOc1cc(Cl)c(N)c(Cl)c1
inactive: dose: 100.0 mg/kg/injection, schedule: Q01DX001 (ip), vehicle: saline with Tween-80 114 % of control | dose: 200.0 mg/kg/injection, schedule: Q01DX001 (ip), vehicle: saline with Tween-80 98 % of control

C#CCN(C)Cc1ccccc1
inactive: dose: 50.0 mg/kg/injection, schedule: Q01DX010 (ip), vehicle: saline 95 % of control | [8] 100 % of control | [9] 109 % of control

c1ccc2c[n+]3cc4ccccc4cc3cc2c1
inactive: dose: 8.75 mg/kg/injection, schedule: Q01DX009 (ip), vehicle: saline 95 % of control | [13] 91 % of control | dose: 17.5 mg/kg/injection, schedule: Q01DX009 (ip), vehicle: saline 100 % of control | [14] 100 % of control

O=C(OC(=O)c1cccc(-c2ccccc2)c1)c1cccc(-c2ccccc2)c1
inactive: [1] 104 % of control | [2] 95 % of control | [4] 95 % of control

O=Cc1ccc(N2CCCCC2)cc1
inactive: [3] 91 % of control | [5] 95 % of control

NN(c1cccc(C(F)(F)F)c1)c1ccccn1
inactive: [18] 108 % of control | [19] 106 % of control | [17] 115 % of control

CCOC(=O)CC1=NN(C(=O)c2ccccc2)C(=NC(=O)c2ccccc2)SC1
inactive: [16] 99 % of control | [10] 101 % of control | [11] 90 % of control

N=P(N[P+](N)(c1ccccc1)c1ccccc1)(c1ccccc1)c1ccccc1
inactive: dose: 6.25 mg/kg/injection, schedule: Q01DX001 (ip), vehicle: saline 117 % of control | dose: 8.2 mg/kg/injection, schedule: Q01DX001 (ip), vehicle: saline 100 % of control | dose: 12.5 mg/kg/injection, schedule: Q01DX001 (ip), vehicle: saline 100 % of control | dose: 18.0 mg/kg/injection, schedule: Q01DX001 (ip), vehicle: saline 104 % of control | dose: 25.0 mg/kg/injection, schedule: Q01DX001 (ip), vehicle: saline 116 % of control

C=CCCCCCCCCC(=O)NCc1nc2ccccc2[nH]1
inactive: [10] 100 % of control | [11] 109 % of control | [12] 95 % of control

C/C(=C\C1C/C(=C/CCc2ccoc2)C(=O)O1)CCCc1ccoc1 (centres undefined)
inactive: dose: 5.0 mg/kg/injection, schedule: Q01DX009 (ip), vehicle: other 107 % of control | dose: 20.0 mg/kg/injection, schedule: Q01DX009 (ip), vehicle: other 106 % of control

CCO/C(N)=N/OS(=O)(=O)c1ccccc1
inactive: [6] 99 % of control | [7] 96 % of control | [15] 98 % of control

CC(=O)O[C@@H]1C[C@@]2(C)[C@@H]3CC=C4[C@@H](C[C@H](O)C(=O)C4(C)C)[C@]3(C)C(=O)C[C@]2(C)[C@H]1[C@@](C)(O)C(=O)/C=C/C(C)(C)OC(C)=O
inactive: dose: 12.5 mg/kg/injection, schedule: Q01DX010 (ip), vehicle: carboxymethylcellulose (CMC) 109 % of control | dose: 25.0 mg/kg/injection, schedule: Q01DX010 (ip), vehicle: carboxymethylcellulose (CMC) 122 % of control | dose: 50.0 mg/kg/injection, schedule: Q01DX010 (ip), vehicle: carboxymethylcellulose (CMC) 95 % of control

CCN(CC)CCn1c(=O)c2ccccc2c2ccccc21
inactive: [18] 120 % of control | [19] 105 % of control | [17] 120 % of control

CC(C#N)(Nc1ccccc1)c1ccc(Br)cc1 (centres undefined)
inactive: dose: 100.0 mg/kg/injection, schedule: Q04DX003 (ip), vehicle: saline sonified 104 % of control | dose: 200.0 mg/kg/injection, schedule: Q04DX003 (ip), vehicle: saline sonified 95 % of control | dose: 400.0 mg/kg/injection, schedule: Q04DX003 (ip), vehicle: saline sonified 95 % of control
